Key:
12-lipoxygenase (12-LO) = 12-lipoxygenase (12-LO) (Homo sapiens, UniProt P18054); experiment: 12-HETE biosynthesis; assay type: cell-based
5-lipoxygenase (5-LO) = target: T1, 5-lipoxygenase (5-LO) (Homo sapiens, UniProt P09917); experiment: 5-LO product biosynthesis; assay type: cell-based
T1 sequence (P09917 1-674): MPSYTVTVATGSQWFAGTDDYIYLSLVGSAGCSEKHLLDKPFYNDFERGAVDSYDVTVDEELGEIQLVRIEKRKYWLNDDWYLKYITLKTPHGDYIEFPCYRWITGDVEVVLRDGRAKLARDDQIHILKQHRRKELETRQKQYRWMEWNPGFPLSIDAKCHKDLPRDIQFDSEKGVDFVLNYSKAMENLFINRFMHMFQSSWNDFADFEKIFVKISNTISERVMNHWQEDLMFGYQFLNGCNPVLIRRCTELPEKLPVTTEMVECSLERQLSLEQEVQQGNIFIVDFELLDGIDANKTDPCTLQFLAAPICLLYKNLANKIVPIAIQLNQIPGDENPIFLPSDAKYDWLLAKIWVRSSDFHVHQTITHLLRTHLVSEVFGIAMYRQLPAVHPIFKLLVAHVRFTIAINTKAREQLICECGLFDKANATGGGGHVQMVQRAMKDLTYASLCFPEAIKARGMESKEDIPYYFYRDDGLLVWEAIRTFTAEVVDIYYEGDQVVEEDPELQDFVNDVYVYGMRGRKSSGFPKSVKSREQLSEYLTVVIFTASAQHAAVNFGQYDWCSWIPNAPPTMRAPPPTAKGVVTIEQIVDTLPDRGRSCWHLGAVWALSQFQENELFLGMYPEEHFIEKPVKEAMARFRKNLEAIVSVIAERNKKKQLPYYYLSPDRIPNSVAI
T1 sequence (P20292 1-161 partner): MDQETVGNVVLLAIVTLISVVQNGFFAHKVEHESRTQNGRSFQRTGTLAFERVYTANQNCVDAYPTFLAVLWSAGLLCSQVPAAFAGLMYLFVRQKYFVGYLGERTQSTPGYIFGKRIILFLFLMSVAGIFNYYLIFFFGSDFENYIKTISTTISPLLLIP

12-lipoxygenase (12-LO), sequence (P18054 whole entry): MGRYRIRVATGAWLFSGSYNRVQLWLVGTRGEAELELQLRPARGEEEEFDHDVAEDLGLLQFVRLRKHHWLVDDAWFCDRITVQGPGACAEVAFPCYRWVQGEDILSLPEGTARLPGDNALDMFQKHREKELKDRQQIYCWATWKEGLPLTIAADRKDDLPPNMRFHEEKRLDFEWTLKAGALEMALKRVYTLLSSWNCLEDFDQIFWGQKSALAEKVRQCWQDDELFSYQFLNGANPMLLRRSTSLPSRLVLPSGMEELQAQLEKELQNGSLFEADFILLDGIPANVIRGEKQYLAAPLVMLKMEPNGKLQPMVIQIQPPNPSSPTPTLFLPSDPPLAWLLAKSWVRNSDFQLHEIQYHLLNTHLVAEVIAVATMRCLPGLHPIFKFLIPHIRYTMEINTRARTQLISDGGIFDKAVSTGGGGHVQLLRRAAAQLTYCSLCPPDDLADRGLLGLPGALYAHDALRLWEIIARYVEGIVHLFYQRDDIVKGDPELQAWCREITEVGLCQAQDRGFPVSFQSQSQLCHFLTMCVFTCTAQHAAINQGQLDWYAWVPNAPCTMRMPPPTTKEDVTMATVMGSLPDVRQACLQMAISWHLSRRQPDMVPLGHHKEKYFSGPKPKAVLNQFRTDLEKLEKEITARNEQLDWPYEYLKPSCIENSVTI

Question: Which results are given for `O=C(/C=C/c1ccc(O)c(O)c1)OCCc1ccccc1` [compound 1, Caffeic acid phenethyl ester]?
Answer: % remaining at 1 μM (12-lipoxygenase (12-LO)): 74.3; IC50 (5-lipoxygenase (5-LO)): 1000 nM
